Where two headings read alike, the source gives them in different places.
Legend:
[1] = system: Y181C HIV-1 mutant; experiment: Antiviral activity against mutant HIV-1 (Y181C) by the MTT method; type: cell-based; settings: read-out: EC50: Effective concentration for the inhibition of the proliferation of mutant HIV-1 by 50%; Y181C mutant HIV-1, MTT
Method: Antiviral activities of the inventive compounds were determined against Y181C which is representative HIV-1 mutant having high resistance against anti-HIV-1 nonnucleosides, e.g., Nevirapine, by the MTT method. MKC-442 was employed as a comparative compound.

[2] = system: HIV-1; settings: for ED50: Effective concentration for the inhibition of the proliferation of HIV-1 by 50%: HIV-1 infected MT-4 cells, MTT; for S.I. Selectivity index (CD50/ED50): CD50/ED50, MT-4 cells
From the text: First, MT-4 cells were suspended in a culture medium at a concentration of 1×10^4 cells/ml and infected with 500 TCID50 (50% cell culture infective dose)/well of HIV-1.

[3] = system: MT-4 cells; settings: mock-infected MT-4 cells, MTT
[4] = system: Y181C HIV-1 mutant; settings: read-out: EC50: Effective concentration for the inhibition of the proliferation of mutant HIV-1 by 50%; Y181C mutant HIV-1; Reference: J. Med. Chem., 42, 4500 (1999); cited from earlier work

Structure (SMILES)	EC50 [1] [µM]	ED50: Effective concentration for the inhibition of the proliferation of HIV-1 by 50% [2] [ng/mL]	CD50: Cytotoxic concentration that causes death of MT-4 cells by 50% [3] [µg/mL]	S.I. Selectivity index (CD50/ED50) [2]	EC50 [4] [µM]
Cc1cc(C)cc(C(=O)c2c(C(C)C)c(=O)[nH]c(=O)n2Cc2ccncc2)c1 [Compound 1, 1-(4′-Picolyl)-5-isopropyl-6-(3′,5′-dimethylbenzoyl)-2,4-pyrimidinedione]	0.005 to 0.014	2.6	22.6		
Cc1cc(C)cc(C(=O)c2c(C(C)C)c(=O)[nH]c(=O)n2Cc2cccnc2)c1 [Compound 2, 1-(3′-Picolyl)-5-isopropyl-6-(3′, 5′-dimethylbenzoyl)-2,4-pyrimidinedione]		3.6	27.2		
Cc1cc(C)cc(C(=O)c2c(C(C)C)c(=O)[nH]c(=O)n2Cc2ccccn2)c1 [Compound 3, 1-(2′-Picolyl)-5-isopropyl-6-(3′, 5′-dimethylbenzoyl)-2,4-pyrimidinedione]		5.5	26.1		
Cc1cc(Cl)cc(Cn2c(C(=O)c3cc(C)cc(C)c3)c(C(C)C)c(=O)[nH]c2=O)c1 [Compound 40]		34.8	7.97		
Cc1cc(C)cc(C(=O)c2c(C(C)C)c(=O)[nH]c(=O)n2Cc2cc(F)cc(F)c2)c1 [Compound 43]		3.5	7.16		
Cc1cc(C)cc(C(=O)c2c(C(C)C)c(=O)[nH]c(=O)n2Cc2cc(C(F)(F)F)cc(C(F)(F)F)c2)c1 [Compound 44]		1800	8.17		
Cc1cc(C)cc(Nc2c(C(C)C)c(=O)[nH]c(=O)n2Cc2ccncc2)c1 [Compound 66, 1-(4′-Picolyl)-5-isopropyl-6-(3′, 5′-dimethylphenylamino)-2,4-pyrimidinedione]		80	>100		
CCc1c(Nc2cc(C)cc(C)c2)n(Cc2ccncc2)c(=O)[nH]c1=O [Compound 67, 1-(4′-Picolyl)-5-ethyl-6-(3′, 5′-dimethylphenylamino)-2,4-pyrimidinedione]		420	54.5		
Cc1cc(C)cc(C(=O)c2c(C(C)C)c(=O)[nH]c(=O)n2Cc2cc[n+]([O-])cc2)c1 [Compound 68, 1-(N-oxo-4′-Picolyl)-5-isopropyl-6-(3′,5′-dimethylbenzoyl)-2,4-pyrimidinedione]		14.5	56.9		
Cc1cc(C)cc(C(=O)c2c(C(C)C)c(=O)[nH]c(=O)n2Cc2cc[n+]([O-])cc2C)c1 [Compound 69, 1-(N-oxo-3′-Methyl-4′-picolyl)-5-isopropyl-6-(3′, 5′-dimethylbenzoyl)-2,4-pyrimidinedione]		12.5	48.25		
Cc1cc(C)cc(C(=O)c2c(C(C)C)c(=O)[nH]c(=O)n2Cc2c(C)c[n+]([O-])cc2C)c1 [Compound 70, 1-(N-oxo-3′, 5-Dimethyl-4′-picolyl)-5-Isopropyl-6-(3′, 5′-dimethylbenzoyl)-2,4-Pyrimidinedione]		5.5	25.84		
Cc1cc(Cl)cc(C(=O)c2c(C(C)C)c(=O)[nH]c(=O)n2Cc2c(C)c[n+]([O-])cc2C)c1 [Compound 71, 1-(N-oxo-3′,5′-Dimethyl-4′-picolyl)-5-isopropyl-6-(3′,-chloro-5-methylbenzoyl)-2,4-pyrimidinedione]		8.2	25.44		
CC(=O)OCc1cnccc1Cn1c(C(=O)c2cc(C)cc(C)c2)c(C(C)C)c(=O)[nH]c1=O [Compound 72, 1-(3′-Acetoxymethyl-4′-picolyl)-5-Isopropyl-6-(3′,5′-dimethylbenzoyl)-2,4-pyrimidinedione]		8.8	38.49		
CC(=O)OCc1cncc(C)c1Cn1c(C(=O)c2cc(C)cc(C)c2)c(C(C)C)c(=O)[nH]c1=O [Compound 73, 1-(3′-Acetoxymethyl-5′-methyl-4′-picolyl)-5-isopropyl-6-(3′,5′-dimethylbenzoyl)-2,4-pyrimidinedione]		6.7	39.65		
Cc1cc(C)cc(C(=O)c2c(C(C)C)c(=O)[nH]c(=O)n2Cc2ccncc2CO)c1 [Compound 75, 1-(3′-Hydroxymethyl-4′-picolyl)-5-isopropyl-6-(3′,5′-dimethylbenzoyl)-2,4-pyrimidinedione]		3.1	42.06		
Cc1cc(C)cc(C(=O)c2c(C(C)C)c(=O)[nH]c(=O)n2Cc2c(C)cncc2CO)c1 [Compound 76, 1-(3′-Hydroxymethyl-5′-methyl-4′-picolyl)-5-isopropyl-6-(3′, 5′-dimethylbenzoyl)-2,4-pyrimidinedione]		8.4	38.39		
Cc1cc(Cl)cc(C(=O)c2c(C(C)C)c(=O)[nH]c(=O)n2Cc2c(C)cncc2CO)c1 [Compound 77, 1-(3′-Hydroxymethyl-5′-methyl-4′-picolyl)-5-isopropyl-6-(3′-chloro-5′-methylbenzoyl)-2,4-pyrimidinedione]		11.5	23.51		
COC(=O)c1cnccc1Cn1c(C(=O)c2cc(C)cc(C)c2)c(C(C)C)c(=O)[nH]c1=O [Compound 78, 1-(3′-Methoxycarbonyl-4′-picolyl)-5-isopropyl-6-(31,51-dimethylbenzoyl)-2,4-pyrimidinedione]		7.5	40.79		
Cc1cc(C)cc(C(=O)c2c(C(C)C)c(=O)[nH]c(=O)n2Cc2ccncc2C(N)=O)c1 [Compound 79, 1-(3′-Carbamoyl-4′-picolyl)-5-isopropyl-6-(3′,5′-dimethylbenzoyl)-2,4-pyrimidinedione]		9.1	>100		
Cc1cc(Cl)cc(C(=O)c2c(C(C)C)c(=O)[nH]c(=O)n2Cc2ccncc2C(N)=O)c1 [Compound 80, 1-(3′-Carbamoyl-4′-picolyl)-5-isopropyl-6-(3′-chloro-5′-methylbenzoyl)-2,4-pyrimidinedione]		11.1	27.83		
Cc1cc(C)cc(C(=O)c2c(C(C)C)c(=O)[nH]c(=O)n2Cc2ccc(N)cc2)c1 [Compound 81, 1-(4′-Aminobenzyl)-5-isopropyl-6-(3′,5′-dimethylbenzoyl)-2,4-pyrimidinedione]		15	9.63	648	
CCOCn1c(Cc2ccccc2)c(C(C)C)c(=O)[nH]c1=O [MKC-442, 6-benzyl-1-ethoxymethyl-5-isopropyluracil, reference compound]		5		5,544	13.4

Source: patent publication US6713486B1, “Antiviral 2,4-pyrimidinedione derivatives and process for the preparation thereof” (Korea Research Institute of Chemical Technology, priority 1999, dated 2004)
